Assay results from ChEMBL document CHEMBL5523737, “Novel Jatrophane Diterpenoids from Euphorbia esula Promotes Lipid Clearance by Transcriptional Regulation of PCSK9” (J Med Chem, 2024).
The source made the active and inactive calls. The rule behind the calls is not given here.

Legend:
HepG2 [1] = experiment: Induction of LDL uptake in human HepG2 cells incubated for 3 hrs under dark condition by DiI-LDL DMEM staining based fluorescence microplate reader assay; type: functional, cell-based
[2] = target: Proprotein convertase subtilisin/kexin type 9 (Homo sapiens) (UniProt Q8NBP7); experiment: Inhibition of PCSK9 transcription in human HepG2 cells at 5 uM by AlphaLISA method; type: cell-based
[3] = Cytotoxicity against human HepG2 cells assessed as cell viability at 20 uM after 24 hrs by CCK8 assay; type: toxicity, cell-based; details: read-out: Activity
HepG2 [4] = experiment: Induction of LDL uptake in HNF1alpha knockdown human HepG2 cells at 5 uM incubated for 3 hrs under dark condition by DiI-LDL DMEM staining based fluorescence microplate reader assay; type: functional, cell-based
[5] = target: Proprotein convertase subtilisin/kexin type 9 (Homo sapiens) (UniProt Q8NBP7); experiment: Inhibition of PCSK9 transcription in human HepG2 cells by AlphaLISA method; type: cell-based
[6] = target: Proprotein convertase subtilisin/kexin type 9 (Homo sapiens) (UniProt Q8NBP7); experiment: Inhibition of PCSK9 (unknown origin) promoter activity expressed in HEK293 cells co-transfected with SV40 at 5 to 10 uM incubated for 24 hrs by dual luciferase assay; type: cell-based; details: dose 5-10 µM
[7] = Hepatotoxicity in HFD induced C57BL/6 mouse assessed as decrease in liver index at 10 to 30 mg/kg, ip administered for 3 weeks; type: toxicity, organism-based; details: in vivo, 504 h, dose 10-30 mg/kg
[8] = target: Proprotein convertase subtilisin/kexin type 9 (Homo sapiens) (UniProt Q8NBP7); experiment: Inhibition of PCSK9 (unknown origin) promoter activity expressed in HEK293 cells co-transfected with SV40 incubated for 24 hrs by dual luciferase assay; type: cell-based; details: dose 1-20 µM
[9] = Hepatotoxicity in HFD induced C57BL/6 mouse assessed as decrease in serum ALT level at 10 to 30 mg/kg, ip administered for 3 weeks; type: toxicity, organism-based; details: in vivo, 504 h, dose 10-30 mg/kg
[10] = Nephrotoxicity in HFD induced C57BL/6 mouse assessed as change in serum UREA level at 10 to 30 mg/kg, ip administered for 3 weeks; type: toxicity, organism-based; details: in vivo, 504 h, dose 10-30 mg/kg
Hepatocyte [11] = experiment: Downregulation of PCSK9 mRNA level in HFD treated mouse hepatocytes at 5 to 20 uM incubated for 24 hrs by qRT-PCR analysis; type: functional, cell-based; details: dose 5-20 µM
[12] = Hepatotoxicity in HFD induced C57BL/6 mouse assessed as decrease in serum AST level at 10 to 30 mg/kg, ip administered for 3 weeks; type: toxicity, organism-based; details: in vivo, 504 h, dose 10-30 mg/kg
HepG2 [13] = experiment: Induction of LDL uptake in human PCSK9 knockdown HepG2 cells at 5 uM incubated for 3 hrs under dark condition by DiI-LDL DMEM staining based fluorescence microplate reader assay; type: functional, cell-based
[14] = target: Proprotein convertase subtilisin/kexin type 9 (Homo sapiens) (UniProt Q8NBP7); experiment: Inhibition of PCSK9 (unknown origin) promoter activity expressed in HNF1alpha knockdown HEK293 cells co-transfected with SV40 incubated for 24 hrs by dual luciferase assay; type: cell-based
HepG2 [15] = experiment: Downregulation of PCSK9 protein level in human HepG2 cells at 5 uM after 3 hrs by Western blotting analysis; type: functional, cell-based
HepG2 [16] = experiment: Upregulation of LDLR protein level in human HepG2 cells at 5 uM after 6 hrs by Western blotting analysis; type: functional, cell-based
[17] = target: Hepatocyte nuclear factor 1-alpha (Homo sapiens) (UniProt P20823); experiment: Binding affinity to HNF1alpha in human HepG2 cells assessed as increase in thermal stability at 10 uM after 1 hr by CETSA; type: cell-based
HepG2 [18] = experiment: Upregulation of LDLR mRNA level in human HepG2 cells by qRT-PCR analysis; type: functional, cell-based
Mus musculus [19] = experiment: Hypolipidemic activity in HFD induced C57BL/6 mouse assessed as reduction in serum TC level at 10 to 30 mg/kg, ip administered for 3 weeks; type: functional, organism-based; details: dose 10-30 mg/kg
HepG2 [20] = experiment: Upregulation of LDLR protein level in human HepG2 cells by Western blotting analysis; type: functional, cell-based
Mus musculus [21] = experiment: Downregulation of PCSK9 protein level in HFD induced C57BL/6 mouse liver at 10 to 30 mg/kg, ip administered for 3 weeks by Western blotting analysis; type: functional, organism-based; details: dose 10-30 mg/kg
Mus musculus [22] = experiment: Hypolipidemic activity in HFD induced C57BL/6 mouse assessed as reduction in serum TG level at 10 to 30 mg/kg, ip administered for 3 weeks; type: functional, organism-based; details: dose 10-30 mg/kg
HepG2 [23] = experiment: Downregulation of PCSK9 mRNA level in human HepG2 cells by qRT-PCR analysis; type: functional, cell-based; details: dose 1-20 µM
Mus musculus [24] = experiment: Hypolipidemic activity in HFD induced C57BL/6 mouse assessed as reduction in serum LDL-C level at 10 to 30 mg/kg, ip administered for 3 weeks; type: functional, organism-based; details: dose 10-30 mg/kg
HepG2 [25] = experiment: Upregulation of LDLR mRNA level in HNF1alpha knockdown human HepG2 cells incubated for 24 hrs by qRT-PCR analysis; type: functional, cell-based
[26] = Nephrotoxicity in HFD induced C57BL/6 mouse assessed as change in serum CREA level at 10 to 30 mg/kg, ip administered for 3 weeks; type: toxicity, organism-based; details: in vivo, 504 h, dose 10-30 mg/kg
HepG2 [27] = experiment: Downregulation of PCSK9 protein level in human HepG2 cells by Western blotting analysis; type: functional, cell-based; details: dose 1-20 µM
Mus musculus [28] = experiment: Hypolipidemic activity in HFD induced C57BL/6 mouse assessed as reduction in serum VLDL-C level at 10 to 30 mg/kg, ip administered for 3 weeks; type: functional, organism-based; details: dose 10-30 mg/kg
Hepatocyte [29] = experiment: Downregulation of PCSK9 protein level in HFD treated mouse hepatocytes at 5 to 20 uM incubated for 24 hrs by Western blotting analysis; type: functional, cell-based; details: dose 5-20 µM
HepG2 [30] = experiment: Effect on HNF1alpha protein level in human HepG2 cells at 5 uM incubated for 24 hrs by Western blotting analysis; type: functional, cell-based
[31] = Effect on HEK293 cell viability at 20 uM; type: toxicity, cell-based; details: human, hek293, 20 µM
HepG2 [32] = experiment: Induction of LDL uptake in human LDLR knockdown HepG2 cells at 5 uM incubated for 3 hrs under dark condition by DiI-LDL DMEM staining based fluorescence microplate reader assay; type: functional, cell-based
HepG2 [33] = experiment: Inhibition of HNF1alpha nuclear transport in human HepG2 cells at 1 to 10 uM after 24 hrs by Western blotting analysis; type: functional, cell-based; details: dose 1-10 µM
HepG2 [34] = experiment: Downregulation of PCSK9 protein level in HNF1alpha knockdown human HepG2 cells at 10 uM incubated for 24 hrs by Western blotting analysis; type: functional, cell-based
[35] = Toxicity in HFD induced C57BL/6 mouse assessed as change in food intake at 10 to 30 mg/kg, ip administered for 3 weeks; type: organism-based; details: in vivo, 504 h, dose 10-30 mg/kg
[36] = target: Proprotein convertase subtilisin/kexin type 9 (Homo sapiens) (UniProt Q8NBP7); experiment: Inhibition of PCSK9 (unknown origin) promoter activity expressed in HNF1alpha overexpressed HEK293 cells co-transfected with SV40 incubated for 24 hrs by dual luciferase assay; type: cell-based
HepG2 [37] = experiment: Upregulation of LDLR protein level in HNF1alpha knockdown human HepG2 cells at 10 uM incubated for 24 hrs by Western blotting analysis; type: functional, cell-based
HepG2 [38] = experiment: Downregulation of PCSK9 mRNA level in HNF1alpha knockdown human HepG2 cells incubated for 24 hrs by qRT-PCR analysis; type: functional, cell-based
Mus musculus [39] = experiment: Upregulation of […] protein level in HFD induced C57BL/6 mouse liver at 10 to 30 mg/kg, ip administered for 3 weeks by Western blotting analysis; type: functional, organism-based; details: dose 10-30 mg/kg

Hepatocyte nuclear factor 1-alpha (Homo sapiens), sequence (P20823 whole entry): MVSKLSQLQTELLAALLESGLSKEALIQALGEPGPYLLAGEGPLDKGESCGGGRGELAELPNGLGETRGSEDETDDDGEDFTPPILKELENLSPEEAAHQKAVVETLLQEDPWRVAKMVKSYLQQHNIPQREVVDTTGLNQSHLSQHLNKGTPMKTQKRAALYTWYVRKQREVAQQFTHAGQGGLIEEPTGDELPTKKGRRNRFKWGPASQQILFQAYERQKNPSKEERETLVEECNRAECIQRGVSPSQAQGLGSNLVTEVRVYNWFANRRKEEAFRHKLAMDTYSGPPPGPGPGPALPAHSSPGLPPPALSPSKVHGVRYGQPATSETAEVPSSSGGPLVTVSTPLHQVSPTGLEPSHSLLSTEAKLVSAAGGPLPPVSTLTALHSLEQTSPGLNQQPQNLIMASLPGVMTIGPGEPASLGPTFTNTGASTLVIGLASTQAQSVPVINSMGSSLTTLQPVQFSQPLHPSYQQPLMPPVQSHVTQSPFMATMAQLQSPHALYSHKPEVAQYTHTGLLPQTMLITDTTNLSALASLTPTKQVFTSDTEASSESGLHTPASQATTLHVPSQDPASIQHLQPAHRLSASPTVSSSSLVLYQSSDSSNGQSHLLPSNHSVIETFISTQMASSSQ

SMILES: C=C1[C@@H](OC(C)=O)[C@H]2[C@@H](OC(C)=O)[C@](C)(OC(=O)Cc3ccccc3)C[C@]2(OC(C)=O)C(=O)[C@H](C)/C=C/C(C)(C)[C@H](OC(=O)c2cccnc2)C[C@H]1OC(=O)C(C)C
- Activity (HepG2 [1]): Active
- inhibition [2]: 56.1%
- viability at 24 h, 20 µM [3]: > 95%
- Activity (HepG2 [4]): Active
- inhibition [5]: Dose-Dependent Effect
- inhibition [6]: Active

SMILES: C=C1[C@@H](OC(C)=O)[C@H]2[C@@H](OC(C)=O)[C@@H](C)C[C@]2(OC(C)=O)C(=O)[C@H](C)/C=C/C(C)(C)[C@H](OC(C)=O)[C@@H](OC(C)=O)[C@H]1OC(C)=O
- inhibition [2]: 0.1%

SMILES: C=C1[C@@H](OC(C)=O)[C@H]2[C@@H](OC(C)=O)[C@@H](C)C[C@]2(OC(C)=O)C(=O)[C@H](C)/C=C/C(C)(C)C(=O)[C@@H](OC(C)=O)[C@H]1OC(C)=O
- inhibition [2]: < 1%

SMILES: C=C1[C@@H](OC(C)=O)[C@H]2[C@@H](OC(C)=O)[C@](C)(OC(C)=O)C[C@]2(OC(C)=O)C(=O)[C@H](C)/C=C/C(C)(C)C(=O)[C@@H](OC(=O)C(C)C)[C@H]1OC(=O)C(C)C
- Activity (HepG2 [1]): Active
- inhibition [2]: 30.4%
- viability at 24 h, 20 µM [3]: > 95%
- inhibition [5]: Dose-Dependent Effect

SMILES: C=C1[C@@H](OC(C)=O)[C@H]2[C@@H](OC(C)=O)[C@@H](C)C[C@]2(OC(C)=O)C(=O)[C@H](C)/C=C/C(C)(C)[C@H](O)C[C@H]1OC(=O)C(C)C
- inhibition [2]: 5.7%

SMILES: C=C1[C@@H](OC(C)=O)[C@H]2[C@@H](OC(C)=O)[C@@H](C)C[C@]2(OC(C)=O)C(=O)[C@H](C)/C=C/C(C)(C)C(=O)C[C@H]1OC(C)=O
- Activity [7]: Toxic
- inhibition [8]: Dose-Dependent Effect
- Activity (HepG2 [1]): Dose-Dependent Effect
- inhibition [2]: 36.4%
- Activity [9]: Non-Toxic
- Activity [10]: Non-Toxic
- Activity (Hepatocyte [11]): Active
- Activity [12]: Toxic
- Activity (HepG2 [13]): Active
- inhibition [14]: inactive
- Activity (HepG2 [15]): Active
- Activity (HepG2 [16]): Active
- Activity [17]: Active
- Activity (HepG2 [18]): Dose-Dependent Effect
- viability at 24 h, 20 µM [3]: > 95%
- Activity (HepG2 [4]): inactive
- Activity (Mus musculus [19]): Active
- Activity (HepG2 [20]): Dose-Dependent Effect
- Activity (Mus musculus [21]): Active
- Activity (Mus musculus [22]): Active
- Activity (HepG2 [23]): Dose-Dependent Effect
- Activity (Mus musculus [24]): Active
- Activity (HepG2 [25]): inactive
- Activity [26]: Non-Toxic
- Activity (HepG2 [27]): Dose-Dependent Effect
- Activity (Mus musculus [28]): Active
- Activity (Hepatocyte [29]): Active
- Activity (HepG2 [30]): inactive
- inhibition [5]: Dose-Dependent Effect
- Activity [31]: Non-Toxic
- Activity (HepG2 [32]): inactive
- inhibition (HepG2 [33]): Active
- Activity (HepG2 [34]): inactive
- Activity [35]: Non-Toxic
- inhibition [36]: Active
- Activity (HepG2 [37]): inactive
- Activity (HepG2 [38]): inactive
- Activity (Mus musculus [39]): Active

SMILES: C=C1[C@@H](OC(C)=O)[C@H]2[C@@H](OC(=O)[C@@H](C)CC)[C@@H](C)C[C@]2(OC(C)=O)C(=O)[C@H](C)/C=C/C(C)(C)[C@H](OC(C)=O)[C@@H](OC(C)=O)[C@H]1OC(C)=O
- Activity (HepG2 [1]): Active
- inhibition [2]: 56.1%
- viability at 24 h, 20 µM [3]: > 95%
- Activity (HepG2 [4]): Active
- inhibition [5]: Dose-Dependent Effect
- inhibition [6]: Active
